Publication PMC9605497, “Potential of Epidermal Growth Factor-like Peptide from the Sea Cucumber Stichopus horrens to Increase the Growth of Human Cells: In Silico Molecular Docking Approach” (Marine Drugs, 2022)
Where “and” joins values, the source holds several entries; their conditions need not be identical. Equal entries are not always repeated.

Test system: human EGFR
Assay: Ligand binding assay with biotinylated peptide (NeutrAvidin-HRP/ABTS, 405 nm)
Conditions: for Relative binding: melanoma cells, 1 h at 37 °C, (OD x nM - OD 0 nM)/OD 0 nM at 405 nm, triplicates; for optimum concentration for binding to EGFR: concentrations tested 10, 50 and 500 nM
Experimental: An experiment was performed to test the ability of Sh-EGFl-1 peptide interaction with human receptor. Ligand binding assay, adapted from King et al. was performed with modifications using human cells. Both Sh-EGFl-1 and rhEGF were first conjugated with N-hydroxysuccinimidobiotin (NHS-biotin) and were added to human cells. Any binding of peptide to EGFR was detected through the reaction of NeutrAvidin conjugated with horseradish peroxidase enzyme and 2,2′-azino-bis-3-ethylbenzothiazoline-6-sulfonic acid (ABTS) as substrate.
A short peptide sequence derived from the protein translation of Contig 498513, was submitted to order. The 4.9 kDa Sh-EGFl-1 peptide (H-NINECFSSPCENQGICQDEIDGYNCVCQPGFTGTHCESSMLNHVI-OH) was synthesized by Mimotopes Pty. Ltd., Australia through a Fmoc solid-phase peptide chemistry method. A master stock concentration of 1 mg/mL was prepared by diluting lyophilized peptide with PBS buffer pH 7.4. Recombinant human EGF (rhEGF) (H-MNSDSECPLSHDGYCLHDGVCMYIEALDKYACNCVVGYIGERCQYRDLKWWELR-OH) was purchased from Thermo Scientific. For the cell proliferation assay and morphology observation experiments, peptides were added fresh into the serum-free growth medium to concentrations of 10 nM and 50 nM. For the binding affinity assay experiment, biotinylation of Sh-EGFl-1 and rhEGF peptides with NHS–biotin (Sigma Aldrich, Burlington, MA, USA) was performed according to the manufacturer’s instructions. The diluted peptides in PBS pH 7.4 were changed into carbonate buffer 0.1 M carbonate buffer pH 9.5 (0.07 M sodium bicarbonate, 0.03 M sodium carbonate) for an optimal biotinylation environment. A 10 X volume of cold acetone was added to the peptides and vortexed for 15 s. The mixture was incubated for 30 min at −20 °C before being centrifuged at 16,100× g for 24 min at 4 °C. The supernatant was discarded and the pellet was air-dried and fully dissolved in carbonate buffer pH 9.5. A total of 20 mg/mL of NHS–biotin was prepared in 1 mL DMSO. A volume of 0.13 µL and 0.1 µL of NHS–biotin was added to the Sh-EGFl-1 and rhEGF peptides, respectively. Both reaction mixtures were vortexed for a while and incubated in a thermoblock with 400 rpm shaking speed for 4 h at room temperature. Any unattached biotin molecules were sieved out using a PD-10 desalting column containing Sephadex G-25 medium (GE Life Sciences, Chicago, IL, USA). PBS buffer pH 7.4 was used as eluent to collect the conjugated peptides out from the column. The concentration of the biotin-conjugated peptides was determined using a NanoDrop spectrophotometer (Thermo Scientific, Waltham, MA, USA) and BCA assay.
Melanoma cells were seeded at 90% confluency in a 96-well plate and cultured in a humidified incubator at 37 °C, equilibrated with 5% CO2 until the next day. When all cells were attached to the surface, the plate was placed on ice for a while to reduce the protein metabolism rate, so the cells were not easily detached. The medium was removed and cells were washed twice using 200 µL of cold PBS buffer. A volume of 100 µL cold formalin was added to the cells to enhance cell attachment to the surface. The plate was placed on ice for the first 5 min, then continued for another 15 min incubation at room temperature. Cells were washed twice using 200 µL of cold PBS. A total of 100 µL of melanoma growth medium (MEM basal medium and 3% FBS) was added and cells were incubated at 37 °C for 30 min. The medium was discarded and replaced with 100 µL of treatment medium (MEM basal medium supplemented with 0.1% BSA, 200 mM HEPES buffer and Sh-EGFl-1 and rhEGF at concentrations of 10, 50 and 500 nM respectively). Cells were incubated at 37 °C for 1 h. The medium was discarded, and cells were washed twice using 200 µL cold PBS and 0.3 M NaCl. A total of 100 µL horseradish peroxidase (HRP) conjugated with NeutrAvidin solution (Thermo Scientific, Waltham, MA, USA) was added with a concentration of 1:10,000 onto cells and incubated at 37 °C for 1 h. […]

With “H-MNSDSECPLSHDGYCLHDGVCMYIEALDKYACNCVVGYIGERCQYRDLKWWELR-OH (disulfide) [rhEGF, Recombinant human EGF purchased from Thermo Scientific, reference compound]” the Relative binding (10 nM) was 12%, the Relative binding (50 nM) was 4% and 3.62% and the Relative binding (500 nM) was 7.57%. The “optimum concentration for binding to EGFR” value was 10 nM.

For “H-NINECFSSPCENQGICQDEIDGYNCVCQPGFTGTHCESSMLNHVI-OH (disulfide) [Sh-EGFl-1, 45 amino acid EGF-like peptide from Stichopus horrens contig 498513, synthesized by Fmoc solid-phase peptide chemistry]”, the Relative binding (10 nM) was 5%, the Relative binding (50 nM) was -0.68% and the Relative binding (500 nM) was ~10% and 10%. The “optimum concentration for binding to EGFR” value was 500 nM.
